Experimental data reported in publication PMC11724075, “Small-molecule-induced ERBB4 activation to treat heart failure” (Nature Communications, 2025).
“And” between values parts separate entries of the source, which are not always exact repeats. Equal entries are not always repeated.

Experiments:
[1] = test system: mouse model of AngII-induced myocardial fibrosis; test: AngII-induced myocardial fibrosis mouse model, 4 weeks, Masson's trichrome fibrosis, wild type mice; type: in vivo; design: key to Total fibrosis male in vivo WT with EF-1 / Total fibrosis female in vivo WT with EF-1 / Total fibrosis male in vivo WT with NA-1: fibrotic (blue-stained) area / total area
Description: (§1) Four weeks after implantation, cardiac ultrasound was performed, mice were euthanized, and hearts were collected. A similar set-up was used for the 1-week study (Alzet, model 1007D) in male mice (n = 9-10 mice in every group).
Hearts were fixed in 4% PFA, paraffin-embedded, and cut into 5-µm sections. Images were acquired with an Olympus BX43 microscope (Olympus Stream Motion Software) or a CELENA® S Digital Imaging System and analyzed with ImageJ 2.14.0 software. Collagen distribution was visualized by Masson’s trichrome staining. Cardiac total fibrosis was expressed as the ratio of positively stained fibrotic area (blue) to the total area and perivascular fibrosis as the ratio of fibrotic area to vascular lumen area. Scar size was determined by measuring the scar length over the […]. Hypertrophy and vascularisation were visualized via an isolectin-B4/WGA/DAPI staining. Quantification was performed by a person blinded to the treatment protocol.

[2] = test system: mouse model of AngII-induced myocardial fibrosis; test: AngII-induced myocardial fibrosis mouse model, 4 weeks, echocardiography, wild-type mice; type: in vivo
Description: as §1
Echocardiography was performed using the Vevo F2-LAZRX (FUJIFILM VisualSonics) and UHF57x probe. Mice were anesthetized with 1.5% isoflurane (Alvira, BE-V512222). Parasternal long-axis B-mode images and M-mode images were obtained and analyzed using VevoLAB software (FUJIFILM VisualSonics, Version 5.7.1). For the AngII experiments, measurements were obtained through analysis of the short-axis M-mode. For the MI experiments, measurements were obtained through analysis of the parasternal long-axis B-mode, of which the area and end-volume of the left ventricular cavity in diastole and systole were determined by tracing the endocardial border. Acquisitions, measurements and analyses were performed blinded.
Supplementary Table 2. Echocardiographic parameters. Echocardiographic parameters obtained through the analysis of the M-mode short-axis views. (a) Male and (b) female wild-type mice treated […]
mice in EF-1 group). (c) Male wild-type mice treated with AngII and NA-1 (n=5 male mice in Ctrl and AngII/Veh group, n=4 male mice in AngII/NA -1 group). (d) Comparison between wild-type and Erbb4-null mice (n=10 male and female wild -type mice and n=6 male and female Erbb4-null mice). (e) Male […]
Echocardiographic parameters obtained through left ventricular trace analysis of the parasternal long-axis obtained in B-mode in female wild-type mice that underwent a sham or MI operation: mice with […]
in MI/EF-1 group). (g) Echocardiographic parameters obtained through left ventricular trace analysis of the parasternal long-axis obtained in B-mode in male wild-type mice that underwent a sham or MI […]
male mice in MI/Veh group for T2 and T4). Echocardiographic parameters were measured weekly (indicated by ‘T’). All data are presented as mean (value of individual mice) ± SD, two-tailed unpaired […]
1 groups. Source data are provided as a Source Data file. AngII, angiotensin II; ANOVA, analysis of variance; Ctrl, control; DOX, doxorubicin; EF, ejection fraction; ERBB4, erythroblastic leukemia viral oncogene homolog 4; FS, fractional shortening; IVSd, interventricular septum thickness in diastole; IVSs, interventricular septum thickness in systole; LVIDd, left ventricular internal diameter in diastole; LVIDs, left ventricular internal diameter in systole; LVPWd, left ventricular posterior wall thickness in diastole; LVPWs, left ventricular posterior wall thickness in systole; MI, myocardial infarction; NA, non-activating pharmacophore-containing compound; SD, standard variation; Veh, vehicle.

iAMs = test: H2O2-induced cell death assay in iAMs (Toxilight), also with LY294002; conditions: for total cell death of iAMs (percentage of total dead cells): 4 h; for total cell death of iAMs (percentage of total dead cells) / total cell death of iAMs: single replicates
Description: Subsequently, H2O2 (100 µM; Merck, H1009) was added and the cells were incubated for 4 h at 37 °C. All wells contained DMSO at a final concentration of 0.9%. […] After incubation at RT for 5 min, luminescence was measured using the Luminoskan Ascent.

[3] = female wild type mice, AngII/EF-1 group, individual animals
[4] = male wild type mice, AngII/EF-1 group, individual animals
[5] = male wild type mice, EF-1 group (no AngII), individual animals
[6] = Female wild-type mice, AngII/EF-1
[7] = Male wild-type mice, AngII/EF-1
[8] = Male wild-type mice, EF-1 without AngII
[9] = female wild-type mice, AngII/EF-1, 4 weeks, mean ± SD
[10] = male wild-type mice, AngII + compound 2 mg/kg/day, 4 weeks, mean ± SD
[11] = male wild-type mice, EF-1 group without AngII, 4 weeks, mean ± SD
[12] = Male wild-type mice, AngII/NA-1

Structure (SMILES): O=C(NC1CC1)C(Sc1nc2ccccc2c(=O)n1C1CCCC1)c1ccccc1 (centres unmarked) [EF-1]
- Perivascular fibrosis female in vivo WT with EF-1 [1, 3]: 1.006 and 0.6567 and 0.4251 and 0.5106 and 0.5866 and 0.41 and 0.775 and 0.451
- Total fibrosis female in vivo WT with EF-1 [1, 3]: 0.56 and 1.25 and 0.75 and 1.11 and 0.5 and 0.41 and 1.42 and 0.66
- effect on AngII-induced interstitial and perivascular fibrosis (in words) ([1]; male and female wild type mice, EF-1 2 mg/kg/day, 4 weeks): significantly prevented both interstitial and perivascular fibrosis
- Perivascular fibrosis male in vivo WT with EF-1 [1, 4]: 2.195 and 0.9604 and 0.7595 and 1.184 and 2.0179
- Total fibrosis male in vivo WT with EF-1 [1, 4]: 1.541 and 0.4939 and 0.5555 and 0.9884 and 1.07
- Perivascular fibrosis male in vivo WT with EF-1 [1, 5]: 0.7074 and 0.782 and 0.418 and 0.8908
- Total fibrosis male in vivo WT with EF-1 [1, 5]: 0.8052 and 0.5165 and 0.1613 and 0.2053
- effect on cardiac dimensions on ultrasound (in words) ([2]; AngII model, both sexes): did not significantly alter cardiac dimensions
- FS [2, 6]: 11.5 ± 5.5%
- IVSd [2, 6]: 0.53 ± 0.07 mm
- IVSs [2, 6]: 0.7 ± 0.1 mm
- LVIDd [2, 6]: 4.2 ± 0.3 mm
- LVIDs [2, 6]: 3.7 ± 0.4 mm
- LVPWd [2, 6]: 0.5 ± 0.1 mm
- LVPWs [2, 6]: 0.6 ± 0.1 mm
- FS [2, 7]: 16.6 ± 3.6%
- IVSd [2, 7]: 0.8 ± 0.1 mm
- IVSs [2, 7]: 1.1 ± 0.2 mm
- LVIDd [2, 7]: 4.4 ± 0.3 mm
- LVIDs [2, 7]: 3.7 ± 0.4 mm
- LVPWd [2, 7]: 0.8 ± 0.2 mm
- LVPWs [2, 7]: 0.9 ± 0.2 mm
- FS [2, 8]: 18.5 ± 5.1%
- IVSd [2, 8]: 0.9 ± 0.1 mm
- IVSs [2, 8]: 1.2 ± 0.1 mm
- LVIDd [2, 8]: 4.2 ± 0.3 mm
- LVIDs [2, 8]: 3.4 ± 0.3 mm
- LVPWd [2, 8]: 0.75 ± 0.03 mm
- LVPWs [2, 8]: 0.9 ± 0.1 mm
- FS [2, 9]: 11.5 ± 5.5%
- IVSd [2, 9]: 0.53 ± 0.07 mm
- IVSs [2, 9]: 0.7 ± 0.1 mm
- LVIDd [2, 9]: 4.2 ± 0.3 mm
- LVIDs [2, 9]: 3.7 ± 0.4 mm
- LVPWd [2, 9]: 0.5 ± 0.1 mm
- LVPWs [2, 9]: 0.6 ± 0.1 mm
- FS [2, 10]: 16.6 ± 3.6%
- IVSd [2, 10]: 0.8 ± 0.1 mm
- IVSs [2, 10]: 1.1 ± 0.2 mm
- LVIDd [2, 10]: 4.4 ± 0.3 mm
- LVIDs [2, 10]: 3.7 ± 0.4 mm
- LVPWd [2, 10]: 0.8 ± 0.2 mm
- LVPWs [2, 10]: 0.9 ± 0.2 mm
- FS [2, 11]: 18.5 ± 5.1%
- IVSd [2, 11]: 0.9 ± 0.1 mm
- IVSs [2, 11]: 1.2 ± 0.1 mm
- LVIDd [2, 11]: 4.2 ± 0.3 mm
- LVIDs [2, 11]: 3.4 ± 0.3 mm
- LVPWd [2, 11]: 0.75 ± 0.03 mm
- LVPWs [2, 11]: 0.9 ± 0.1 mm
- total cell death of iAMs (percentage of total dead cells) (iAMs; EF-1 + SiERBB4, 1e-6 M, H2O2 100 µM): 68.0221 and 60.0225 and 62.2886
- total cell death of iAMs (percentage of total dead cells) (iAMs; EF-1 + SiERBB4, 4e-6 M, H2O2 100 µM): 72.51 and 56.29 and 70.83
- total cell death of iAMs (percentage of total dead cells) (iAMs; EF-1 + SiERBB4, 8e-6 M, H2O2 100 µM): 69.73 and 50.25 and 72.39
- total cell death of iAMs (percentage of total dead cells) (iAMs; EF-1 + SiERBB4, 1.6e-5 M, H2O2 100 µM): 67.67 and 53.83 and 80.13
- total cell death of iAMs (percentage of total dead cells) (iAMs; EF-1 + SiERBB4, 3.2e-5 M, H2O2 100 µM): 64.65 and 55.01 and 72.56
- total cell death of iAMs (percentage of total dead cells) (iAMs; EF-1 + SiScr, 1e-6 M, H2O2 100 µM): 62.2886 and 68.0221 and 60.0225
- total cell death of iAMs (percentage of total dead cells) (iAMs; EF-1 + SiScr, 4e-6 M, H2O2 100 µM): 34.38 and 49.85 and 69.84
- total cell death of iAMs (percentage of total dead cells) (iAMs; EF-1 + SiScr, 8e-6 M, H2O2 100 µM): 29.53 and 51.53 and 63.09
- total cell death of iAMs (percentage of total dead cells) (iAMs; EF-1 + SiScr, 1.6e-5 M, H2O2 100 µM): 23.16 and 29.77 and 55.38
- total cell death of iAMs (percentage of total dead cells) (iAMs; EF-1 + SiScr, 3.2e-5 M, H2O2 100 µM): 15.16 and 25.21 and 30.15
- total cell death of iAMs (iAMs; H2O2/EF-1 (32 µM) + LY294002 (20 µM, 10 min pretreatment)): 37.778 and 30.0948 and 30.3358 and 33.2686
- total cell death of iAMs (iAMs; H2O2/EF-1 (32 µM), without LY294002): 27.2571 and 19.0561 and 18.1394 and 25.7513
- decrease of H2O2-induced cardiomyocyte cell death (iAMs; at its highest dose): more than 75%

Structure (SMILES): Cc1sc2nc(SC(C)C(=O)NCc3ccc4c(c3)OCO4)n(-c3ccccc3)c(=O)c2c1C (centres unmarked) [NA-1]
- Perivascular fibrosis male in vivo WT with NA-1 ([1]; AngII/NA-1, individual animals): 1.271 and 2.289 and 2.187 and 2.2768
- Total fibrosis male in vivo WT with NA-1 ([1]; AngII/NA-1, individual animals): 7.18 and 11.9815 and 8.108 and 8.95
- effect on AngII-induced interstitial and perivascular fibrosis (in words) ([1]; male wild type mice, NA-1 2 mg/kg/day): did not significantly prevent interstitial or perivascular AngII-induced fibrosis
- FS [2, 12]: 18.1 ± 5.1%
- IVSd [2, 12]: 1.0 ± 0.2 mm
- IVSs [2, 12]: 1.4 ± 0.2 mm
- LVIDd [2, 12]: 4.3 ± 0.7 mm
- LVIDs [2, 12]: 3.5 ± 0.7 mm
- LVPWd [2, 12]: 0.9 ± 0.1 mm
- LVPWs [2, 12]: 1.1 ± 0.3 mm
- FS [2, 10]: 18.1 ± 5.1%
- IVSd [2, 10]: 1.0 ± 0.2 mm
- IVSs [2, 10]: 1.4 ± 0.2 mm
- LVIDd [2, 10]: 4.3 ± 0.7 mm
- LVIDs [2, 10]: 3.5 ± 0.7 mm
- LVPWd [2, 10]: 0.9 ± 0.1 mm
- LVPWs [2, 10]: 1.1 ± 0.3 mm
- effect on cardiomyocyte survival (in words) (iAMs; H2O2 100 µM): did not have a significant effect on cardiomyocyte survival
- total cell death of iAMs (percentage of total dead cells) (iAMs; NA-1, 1e-6 M, H2O2 100 µM): 60.0225 and 62.2886 and 68.0221
- total cell death of iAMs (percentage of total dead cells) (iAMs; NA-1, 4e-6 M, H2O2 100 µM): 64.78 and 60.57 and 53.32 and 58.95
- total cell death of iAMs (percentage of total dead cells) (iAMs; NA-1, 8e-6 M, H2O2 100 µM): 63.16 and 63.84 and 49.27 and 56.61
- total cell death of iAMs (percentage of total dead cells) (iAMs; NA-1, 1.6e-5 M, H2O2 100 µM): 61.57 and 64.49 and 50.09 and 59.17
- total cell death of iAMs (percentage of total dead cells) (iAMs; NA-1, 3.2e-5 M, H2O2 100 µM): 63.24 and 58.6 and 49.06 and 56.03
